{
  "source": "patent US20220226341A1",
  "about": "“Pharmaceutical Composition for Alzheimer's Disease” (Kyoto University, priority 2019, published 2022)",
  "experiment": "Tissue distribution of radioactivity after single intravenous administration of 14C-labeled Compound 1 (blood-brain barrier penetration)",
  "format": "in vivo",
  "conditions": "rats, single iv 5 mg/kg 14C-labeled, n = 3",
  "description": "[Testing the Penetration of the Compound Through the Blood-Brain Barrier]\nBrain permeability (intracerebral transferability) of Compound 1 was evaluated.\n^14C-labeled Compound 1 was intravenously administered once in a dose of 5 mg/kg (3.52 MBq/kg) to rats, and histological distribution (biodistribution) thereof was studied.",
  "data": [
    {"compound": "Fc1ccc(N2CCCCC2)c(NC(=S)c2ccncc2)c1", "note": "[Compound 1]", "values": [
      {"measurement": "Radioactivity concentration", "setting": "Adrenal gland, 5 min", "result": "47334.91 ng eq. of Compound 1/g or mL"},
      {"measurement": "Radioactivity concentration", "setting": "Adrenal gland, 6 h", "result": "1517.3 ng eq. of Compound 1/g or mL"},
      {"measurement": "Radioactivity concentration", "setting": "Adrenal gland, 24 h", "result": "195.16 ng eq. of Compound 1/g or mL"},
      {"measurement": "Radioactivity concentration", "setting": "Adrenal gland, 72 h", "result": "23.21 ng eq. of Compound 1/g or mL"},
      {"measurement": "Radioactivity concentration", "setting": "Aorta, 5 min", "result": "1995.27 ng eq. of Compound 1/g or mL"},
      {"measurement": "Radioactivity concentration", "setting": "Aorta, 6 h", "result": "730.03 ng eq. of Compound 1/g or mL"},
      {"measurement": "Radioactivity concentration", "setting": "Aorta, 24 h", "result": "76.22 ng eq. of Compound 1/g or mL"},
      {"measurement": "Radioactivity concentration", "setting": "Bonemarrow, 5 min", "result": "6109.89 ng eq. of Compound 1/g or mL"},
      {"measurement": "Radioactivity concentration", "setting": "Bonemarrow, 6 h", "result": "900.75 ng eq. of Compound 1/g or mL"},
      {"measurement": "Radioactivity concentration", "setting": "Bonemarrow, 24 h", "result": "106.7 ng eq. of Compound 1/g or mL"},
      {"measurement": "Radioactivity concentration", "setting": "Brown fat, 5 min", "result": "8467.9 ng eq. of Compound 1/g or mL"},
      {"measurement": "Radioactivity concentration", "setting": "Brown fat, 6 h", "result": "6412.21 ng eq. of Compound 1/g or mL"},
      {"measurement": "Radioactivity concentration", "setting": "Brown fat, 24 h", "result": "217.43 ng eq. of Compound 1/g or mL"},
      {"measurement": "Radioactivity concentration", "setting": "Brown fat, 72 h", "result": "11.3 ng eq. of Compound 1/g or mL"},
      {"measurement": "Radioactivity concentration", "setting": "Cecum, 5 min", "result": "5555.55 ng eq. of Compound 1/g or mL"},
      {"measurement": "Radioactivity concentration", "setting": "Cecum, 6 h", "result": "3979.48 ng eq. of Compound 1/g or mL"},
      {"measurement": "Radioactivity concentration", "setting": "Epididymis, 5 min", "result": "2568.88 ng eq. of Compound 1/g or mL"},
      {"measurement": "Radioactivity concentration", "setting": "Epididymis, 6 h", "result": "1809.29 ng eq. of Compound 1/g or mL"},
      {"measurement": "Radioactivity concentration", "setting": "Epididymis, 24 h", "result": "312.66 ng eq. of Compound 1/g or mL"},
      {"measurement": "Radioactivity concentration", "setting": "Epididymis, 72 h", "result": "21.99 ng eq. of Compound 1/g or mL"},
      {"measurement": "Radioactivity concentration", "setting": "Eyeball, 5 min", "result": "1785.93 ng eq. of Compound 1/g or mL"},
      {"measurement": "Radioactivity concentration", "setting": "Eyeball, 6 h", "result": "960.39 ng eq. of Compound 1/g or mL"},
      {"measurement": "Radioactivity concentration", "setting": "Eyeball, 24 h", "result": "117.64 ng eq. of Compound 1/g or mL"},
      {"measurement": "Radioactivity concentration", "setting": "Eyeball, 72 h", "result": "7.03 ng eq. of Compound 1/g or mL"},
      {"measurement": "Radioactivity concentration", "setting": "Fat, 5 min", "result": "1181.88 ng eq. of Compound 1/g or mL"},
      {"measurement": "Radioactivity concentration", "setting": "Fat, 6 h", "result": "5031.8 ng eq. of Compound 1/g or mL"},
      {"measurement": "Radioactivity concentration", "setting": "Fat, 24 h", "result": "1665.35 ng eq. of Compound 1/g or mL"},
      {"measurement": "Radioactivity concentration", "setting": "Fat, 72 h", "result": "112.35 ng eq. of Compound 1/g or mL"},
      {"measurement": "Radioactivity concentration", "setting": "Harderian gland, 5 min", "result": "12633.83 ng eq. of Compound 1/g or mL"},
      {"measurement": "Radioactivity concentration", "setting": "Harderian gland, 6 h", "result": "1418.19 ng eq. of Compound 1/g or mL"},
      {"measurement": "Radioactivity concentration", "setting": "Harderian gland, 24 h", "result": "131.47 ng eq. of Compound 1/g or mL"},
      {"measurement": "Radioactivity concentration", "setting": "Harderian gland, 72 h", "result": "8.95 ng eq. of Compound 1/g or mL"},
      {"measurement": "Radioactivity concentration", "setting": "Heart, 5 min", "result": "8604.53 ng eq. of Compound 1/g or mL"},
      {"measurement": "Radioactivity concentration", "setting": "Heart, 6 h", "result": "912.54 ng eq. of Compound 1/g or mL"},
      {"measurement": "Radioactivity concentration", "setting": "Heart, 24 h", "result": "105.78 ng eq. of Compound 1/g or mL"},
      {"measurement": "Radioactivity concentration", "setting": "Heart, 72 h", "result": "10.01 ng eq. of Compound 1/g or mL"},
      {"measurement": "Radioactivity concentration", "setting": "Kidney, 5 min", "result": "13230.64 ng eq. of Compound 1/g or mL"},
      {"measurement": "Radioactivity concentration", "setting": "Kidney, 6 h", "result": "2138.26 ng eq. of Compound 1/g or mL"},
      {"measurement": "Radioactivity concentration", "setting": "Kidney, 24 h", "result": "264.55 ng eq. of Compound 1/g or mL"},
      {"measurement": "Radioactivity concentration", "setting": "Kidney, 72 h", "result": "31.5 ng eq. of Compound 1/g or mL"},
      {"measurement": "Radioactivity concentration", "setting": "Kidney, 168 h", "result": "12.02 ng eq. of Compound 1/g or mL"},
      {"measurement": "Radioactivity concentration", "setting": "Liver, 5 min", "result": "29518.18 ng eq. of Compound 1/g or mL"},
      {"measurement": "Radioactivity concentration", "setting": "Liver, 6 h", "result": "3033.96 ng eq. of Compound 1/g or mL"},
      {"measurement": "Radioactivity concentration", "setting": "Liver, 24 h", "result": "740.19 ng eq. of Compound 1/g or mL"},
      {"measurement": "Radioactivity concentration", "setting": "Liver, 72 h", "result": "180.72 ng eq. of Compound 1/g or mL"},
      {"measurement": "Radioactivity concentration", "setting": "Liver, 168 h", "result": "48.2 ng eq. of Compound 1/g or mL"},
      {"measurement": "Radioactivity concentration", "setting": "Lung, 5 min", "result": "7645.96 ng eq. of Compound 1/g or mL"},
      {"measurement": "Radioactivity concentration", "setting": "Lung, 6 h", "result": "1247.84 ng eq. of Compound 1/g or mL"},
      {"measurement": "Radioactivity concentration", "setting": "Lung, 24 h", "result": "175.43 ng eq. of Compound 1/g or mL"},
      {"measurement": "Radioactivity concentration", "setting": "Lung, 72 h", "result": "33.55 ng eq. of Compound 1/g or mL"},
      {"measurement": "Radioactivity concentration", "setting": "Lung, 168 h", "result": "12.98 ng eq. of Compound 1/g or mL"},
      {"measurement": "Radioactivity concentration", "setting": "Mandibular gland, 5 min", "result": "13355.34 ng eq. of Compound 1/g or mL"},
      {"measurement": "Radioactivity concentration", "setting": "Mandibular gland, 6 h", "result": "995.48 ng eq. of Compound 1/g or mL"}
    ]}
  ]
}
